{"source": "patent US20090111736A1", "about": "“Orally-Absorbed Solid Dose Formulation for Vancomycin” (SRI International, priority 2007, published 2009)", "tested_on": "rat jejunum", "test": "In vitro mucosal-to-serosal vancomycin transport, modified Ussing chambers, jejunum", "format": "in vitro ADME", "conditions": "for Ave. Cumulative Amt VCM Released: jejunum", "text": "We investigated regional variation in permeation of vancomycin (VCM) across various segments of rat intestine and colon in vitro by mounting isolated segments of rat intestine and colon between horizontal modified Ussing chambers. The effects of drug concentration and of addition of a p-glycoprotein inhibitor or permeation enhancer(s) as formulation additives on VCM permeation were also studied in vitro using segments of rat jejunum.\nMethods: A modified Ussing system (Easy mount Ussing system, Physiological Instruments Inc., CA, Item # EM-CSYS-8) with eight sets of chambers was used for all in vitro studies; each set consisted of two parallel diffusion chambers, a heating block for temperature control, needle valves for gas flow adjustment and gas mixing, and Ag/AgCl voltage and current electrodes for measuring transepithelial voltage and for passing current.\nHarvesting of required small intestinal or colon segments of a male rat was performed using experimental procedures described in the literature (Gotoh et al., J Biomol Screen (2005) 10:517-23). The harvested segments of small intestine or colon were mounted on sliders placed between the two horizontal chambers of a modified Ussing system.\nVCM was dissolved in HEPES buffer pH 7.4 (Table 1) previously saturated with 100% O2 or HEPES buffer containing additives selected from permeation enhancer(s) and/or an efflux transport inhibitor (Table 2) to obtain predetermined concentrations of drug and additive(s).\nDrug transport across epithelial membranes of harvested rat small intestine and colon segments, in mucosal-to-serosal (M-to-S) direction, was studied using modified Ussing Chambers. Aliquots of HEPES buffer (5 ml) were initially added to both the mucosal and serosal chambers and allowed to equilibrate for 20 minutes. The HEPES buffer in the mucosal chamber was replaced by a study sample containing VCM alone or VCM and selected additive(s) in HEPES buffer, e.g., 5 mg/mL of VCM dissolved in HEPES buffer containing 10% w/w Labrasol®. Aliquots of 0.5 mL buffer solutions were removed periodically from serosal chambers, and replaced with equal volumes of fresh warm (37±2° C.) HEPES buffer previously saturated with 100% O2. […]\nChanges in transepithelial short-circuit current (in micro-Amps) and membrane resistance (in Ohms) as a function of time were monitored continuously during in vitro studies to serve as indicators of tissue viability and drug permeability, respectively. The buffer samples from the receptor chambers were analyzed for VCM content on a high pressure liquid chromatograph (HPLC; Hewlett Packard Model 1100 series).\nThe analysis of VCM samples was performed using a reverse phase gradient HPLC method, with a Hypersil BDS C18 column, 5 μm, 150×4.6 mm., mobile phase consisting of 5 mM potassium phosphate monobasic in water (pH 3) as solvent A and acetonitrile as solvent B at a flow rate of 1 ml/min (Farin et al., J Pharm Biomed Anal (1998) 18:367-72). The eluant was monitored by a UV/diode array detector at 280 nm.\nTo compare data obtained from different in vitro experiments, the apparent permeability coefficients were calculated using the equation: […]\nWhere dQ/dt is the linear appearance rate of mass in receiver compartment, C0 is the initial solute concentration in donor compartment, and A is the surface area (Luo et al., Drug Metab Dispos (2002) 30:763-70).", "note": "“And” between values parts separate entries of the source, which are not always exact repeats. Equal entries are not always repeated. Structures can show the parent of a compound that is named as a salt."}
{"smiles": "CN[C@H](CC(C)C)C(=O)N[C@H]1C(=O)N[C@@H](CC(N)=O)C(=O)N[C@H]2C(=O)N[C@H]3C(=O)N[C@H](C(=O)N[C@H](C(=O)O)c4cc(O)cc(O)c4-c4cc3ccc4O)[C@H](O)c3ccc(c(Cl)c3)Oc3cc2cc(c3O[C@@H]2O[C@H](CO)[C@@H](O)[C@H](O)[C@H]2O[C@H]2C[C@](C)(N)[C@H](O)[C@H](C)O2)Oc2ccc(cc2Cl)[C@H]1O", "note": "[Vancomycin hydrochloride]", "values": [{"measurement": "increase in M-to-S transport of VCM", "setting": "0.15 mM Quinidine added to the serosal chamber", "value": 3, "unit": "fold"}, {"measurement": "effect on M-to-S transport of VCM", "setting": "0.15 mM Quinidine in mucosal chamber", "value": "increased M-to-S transport of VCM, but to a lesser extent"}, {"measurement": "effect on in vitro permeation of VCM", "setting": "1.0 mM sodium decanoate in mucosal chamber", "value": "much greater effect"}, {"measurement": "effect on in vitro permeation of VCM", "setting": "1.0 mM sodium decanoate in serosal chamber", "value": "minimal effect"}, {"measurement": "effect on M-to-S transport of VCM", "setting": "bile salts at 20% w/w in mucosal chamber", "value": "greatly enhanced M-to-S transport"}, {"measurement": "Ave. Cumulative Amt VCM Released", "setting": "1.0 mM sodium decanoate in mucosal chamber, 0.5 hr", "value": "2.24 ± 3.17", "unit": "µg"}, {"measurement": "Ave. Cumulative Amt VCM Released", "setting": "1.0 mM sodium decanoate in mucosal chamber, 1.0 hr", "value": "4.52 ± 6.39", "unit": "µg"}, {"measurement": "Ave. Cumulative Amt VCM Released", "setting": "1.0 mM sodium decanoate in mucosal chamber, 1.5 hr", "value": "11.11 ± 10.44", "unit": "µg"}, {"measurement": "Ave. Cumulative Amt VCM Released", "setting": "1.0 mM sodium decanoate in mucosal chamber, 2.0 hr", "value": "19.25 ± 14.42", "unit": "µg"}, {"measurement": "Ave. Cumulative Amt VCM Released", "setting": "1.0 mM sodium decanoate in mucosal chamber, 2.5 hr", "value": "34.10 ± 8.84", "unit": "µg"}, {"measurement": "Ave. Cumulative Amt VCM Released", "setting": "1.0 mM sodium decanoate in serosal chamber, 0.5 hr", "value": "0.00 ± 0.00", "unit": "µg"}, {"measurement": "Ave. Cumulative Amt VCM Released", "setting": "1.0 mM sodium decanoate in serosal chamber, 1.0 hr", "value": "0.91 ± 1.28", "unit": "µg"}, {"measurement": "Ave. Cumulative Amt VCM Released", "setting": "1.0 mM sodium decanoate in serosal chamber, 1.5 hr", "value": "3.91 ± 0.70", "unit": "µg"}, {"measurement": "Ave. Cumulative Amt VCM Released", "setting": "1.0 mM sodium decanoate in serosal chamber, 2.0 hr", "value": "6.91 ± 0.41", "unit": "µg"}, {"measurement": "Ave. Cumulative Amt VCM Released", "setting": "1.0 mM sodium decanoate in serosal chamber, 2.5 hr", "value": "10.60 ± 0.28", "unit": "µg"}, {"measurement": "Ave. Cumulative Amt VCM Released", "setting": "5 mg/ml vancomycin in HEPES buffer without enhancer, 0.5 hr, hydrochloride", "value": "0.00 ± 0.00 µg and 0.00 ± 0.0 µg"}, {"measurement": "Ave. Cumulative Amt VCM Released", "setting": "5 mg/ml vancomycin in HEPES buffer without enhancer, 1.0 hr", "value": "1.06 ± 0.95", "unit": "µg"}, {"measurement": "Ave. Cumulative Amt VCM Released", "setting": "5 mg/ml vancomycin in HEPES buffer without enhancer, 1.5 hr", "value": "3.73 ± 0.61", "unit": "µg"}, {"measurement": "Ave. Cumulative Amt VCM Released", "setting": "5 mg/ml vancomycin in HEPES buffer without enhancer, 2.0 hr", "value": "6.94 ± 1.07", "unit": "µg"}, {"measurement": "Ave. Cumulative Amt VCM Released", "setting": "5 mg/ml vancomycin in HEPES buffer without enhancer, 2.5 hr", "value": "11.08 ± 1.08", "unit": "µg"}, {"measurement": "Ave. Cumulative Amt VCM Released", "setting": "5 mg/ml, 0.15 mM Quinidine in mucosal chamber, 0.5 hr", "value": "0.00 ± 0.00", "unit": "µg"}, {"measurement": "Ave. Cumulative Amt VCM Released", "setting": "5 mg/ml, 0.15 mM Quinidine in mucosal chamber, 1.0 hr", "value": "1.72 ± 2.44", "unit": "µg"}, {"measurement": "Ave. Cumulative Amt VCM Released", "setting": "5 mg/ml, 0.15 mM Quinidine in mucosal chamber, 1.5 hr", "value": "4.91 ± 3.98", "unit": "µg"}, {"measurement": "Ave. Cumulative Amt VCM Released", "setting": "5 mg/ml, 0.15 mM Quinidine in mucosal chamber, 2.0 hr", "value": "9.00 ± 5.72", "unit": "µg"}, {"measurement": "Ave. Cumulative Amt VCM Released", "setting": "5 mg/ml, 0.15 mM Quinidine in mucosal chamber, 2.5 hr", "value": "14.14 ± 6.95", "unit": "µg"}, {"measurement": "Ave. Cumulative Amt VCM Released", "setting": "5 mg/ml, 0.15 mM Quinidine in serosal chamber, 0.5 hr", "value": "1.87 ± 0.57", "unit": "µg"}, {"measurement": "Ave. Cumulative Amt VCM Released", "setting": "5 mg/ml, 0.15 mM Quinidine in serosal chamber, 1.0 hr", "value": "8.27 ± 3.06", "unit": "µg"}, {"measurement": "Ave. Cumulative Amt VCM Released", "setting": "5 mg/ml, 0.15 mM Quinidine in serosal chamber, 1.5 hr", "value": "16.77 ± 7.45", "unit": "µg"}, {"measurement": "Ave. Cumulative Amt VCM Released", "setting": "5 mg/ml, 0.15 mM Quinidine in serosal chamber, 2.0 hr", "value": "26.75 ± 11.57", "unit": "µg"}, {"measurement": "Ave. Cumulative Amt VCM Released", "setting": "5 mg/ml, 0.15 mM Quinidine in serosal chamber, 2.5 hr", "value": "38.96 ± 12.27", "unit": "µg"}, {"measurement": "Ave. Cumulative Amt VCM Released", "setting": "5 mg/ml, slider area 0.5 cm^2, 20% w/w bile salt, 0.5 hr", "value": "0.00 ± 0.00", "unit": "µg"}, {"measurement": "Ave. Cumulative Amt VCM Released", "setting": "5 mg/ml, slider area 0.5 cm^2, 20% w/w bile salt, 1.0 hr", "value": "5.40 ± 2.26", "unit": "µg"}, {"measurement": "Ave. Cumulative Amt VCM Released", "setting": "5 mg/ml, slider area 0.5 cm^2, 20% w/w bile salt, 1.5 hr", "value": "18.19 ± 7.43", "unit": "µg"}, {"measurement": "Ave. Cumulative Amt VCM Released", "setting": "5 mg/ml, slider area 0.5 cm^2, 20% w/w bile salt, 2.0 hr", "value": "37.58 ± 9.54", "unit": "µg"}, {"measurement": "Ave. Cumulative Amt VCM Released", "setting": "5 mg/ml, slider area 0.5 cm^2, 20% w/w bile salt, 2.5 hr", "value": "66.39 ± 18.91", "unit": "µg"}, {"measurement": "Ave. Cumulative Amt VCM Released", "setting": "5 mg/ml, slider area 0.5 cm^2, No Q (quinidine study), 0.5 hr", "value": "0.00 ± 0.00", "unit": "µg"}, {"measurement": "Ave. Cumulative Amt VCM Released", "setting": "5 mg/ml, slider area 0.5 cm^2, No Q (quinidine study), 1.0 hr", "value": "1.66 ± 0.43", "unit": "µg"}, {"measurement": "Ave. Cumulative Amt VCM Released", "setting": "5 mg/ml, slider area 0.5 cm^2, No Q (quinidine study), 1.5 hr", "value": "4.34 ± 1.57", "unit": "µg"}, {"measurement": "Ave. Cumulative Amt VCM Released", "setting": "5 mg/ml, slider area 0.5 cm^2, No Q (quinidine study), 2.0 hr", "value": "8.73 ± 2.92", "unit": "µg"}, {"measurement": "Ave. Cumulative Amt VCM Released", "setting": "5 mg/ml, slider area 0.5 cm^2, No Q (quinidine study), 2.5 hr", "value": "14.24 ± 4.56", "unit": "µg"}, {"measurement": "Ave. Cumulative Amt VCM Released", "setting": "10 mg/ml in HEPES buffer without enhancer, 0.5 hr", "value": "0.00 ± 0.0", "unit": "µg"}, {"measurement": "Ave. Cumulative Amt VCM Released", "setting": "10 mg/ml in HEPES buffer without enhancer, 1.0 hr", "value": "2.76 ± 0.69", "unit": "µg"}, {"measurement": "Ave. Cumulative Amt VCM Released", "setting": "10 mg/ml in HEPES buffer without enhancer, 1.5 hr", "value": "6.88 ± 0.98", "unit": "µg"}, {"measurement": "Ave. Cumulative Amt VCM Released", "setting": "10 mg/ml in HEPES buffer without enhancer, 2.0 hr", "value": "12.86 ± 1.23", "unit": "µg"}, {"measurement": "Ave. Cumulative Amt VCM Released", "setting": "10 mg/ml in HEPES buffer without enhancer, 2.5 hr", "value": "20.77 ± 1.90", "unit": "µg"}, {"measurement": "Ave. Cumulative Amt VCM Released", "setting": "25 mg/ml in HEPES buffer without enhancer, 0.5 hr", "value": "0.00 ± 0.0", "unit": "µg"}, {"measurement": "Ave. Cumulative Amt VCM Released", "setting": "25 mg/ml in HEPES buffer without enhancer, 1.0 hr", "value": "2.90 ± 1.82", "unit": "µg"}, {"measurement": "Ave. Cumulative Amt VCM Released", "setting": "25 mg/ml in HEPES buffer without enhancer, 1.5 hr", "value": "7.99 ± 5.71", "unit": "µg"}, {"measurement": "Ave. Cumulative Amt VCM Released", "setting": "25 mg/ml in HEPES buffer without enhancer, 2.0 hr", "value": "21.56 ± 3.84", "unit": "µg"}, {"measurement": "Ave. Cumulative Amt VCM Released", "setting": "25 mg/ml in HEPES buffer without enhancer, 2.5 hr", "value": "50.91 ± 6.58", "unit": "µg"}, {"measurement": "Ave. Cumulative Amt VCM Released", "setting": "50 mg/ml in HEPES buffer without enhancer, 0.5 hr", "value": "0.97 ± 1.37", "unit": "µg"}]}
